Usually pIC50 stands for the negative decadic logarithm of the IC50, by convention in mol/L. Low values mean a large IC50, high ones a small IC50. In general, MIC refers to the smallest concentration in the dilution series that meets the test's criterion for growth inhibition. A high value points to weaker potency.

A short description of data set [1]: Lipophilicity determination by RP-HPLC (capacity factor, log k). The note with it: RP-HPLC capacity factor logarithm; C18 column, MeOH 60% / H2O 40%, 40 °C. The class given is physicochemical. On the procedure: Lipophilicity of the studied compounds was determined by RP-HPLC as capacity factor logarithm (log k) and calculated as log P using ACD/Percepta software. […] It is important to note that lipophilicity also has a great impact on target and off-target interactions, as mentioned below.
A HPLC system Agilent 1200 equipped with DAD detector (Agilent, Santa Clara, CA, USA) was used. A chromatographic column Symmetry® C18 5 μm, 4.6 × 250 mm, Part No. WAT054275, (Waters Corp., Milford, MA, USA) was used. The HPLC separation process was monitored and evaluated by EZChrom Elite software ver. 3.3.2 (Agilent). Isocratic elution by a mixture of MeOH p.a. (60%) and H2O-HPLC Mili-Q grade (40%) as a mobile phase was used. The total flow of the column was 1.0 mL/min, injection 20 μL, column temperature 40 °C and sample temperature 10 °C. The detection wavelength 210 nm was chosen. The KI methanolic solution was used for the dead time (tD) determination. Retention times (tR) were measured in minutes. The capacity factors k were calculated according to formula k = (tR − tD)/tD, where tR is the retention time of the solute, whereas tD denotes the dead time obtained using an unretained analyte. Log k, calculated from the capacity factor k, is used as the lipophilicity index converted to log P scale.

Data set [2] relates to photosynthetic electron transport (PET) in spinach chloroplasts. As to the kind of experiment: Inhibition of photosynthetic electron transport (PET) in spinach chloroplasts (DCPIP photoreduction). It counts as biochemical, Spinacia oleracea L. On the procedure: Chloroplasts were prepared from spinach (Spinacia oleracea L.) according to Masarovicova and Kralova. The inhibition of photosynthetic electron transport (PET) in spinach chloroplasts was determined spectrophotometrically (Genesys 6, Thermo Scientific), using an artificial electron acceptor 2,6-dichlorophenol-indophenol (DCIPP) according to Kralova et al., and the rate of photosynthetic electron transport was monitored as a photoreduction of DCPIP. The measurements were carried out in phosphate buffer (0.02 mol/L, pH 7.2) containing sucrose (0.4 mol/L), MgCl2 (0.005 mol/L) and NaCl (0.015 mol/L). The chlorophyll content was 30 mg/L in these experiments and the samples were irradiated (~100 W/m^2 with 10 cm distance) with a halogen lamp (250 W) using a 4 cm water filter to prevent warming of the samples (suspension temperature 22 °C). The studied compounds were dissolved in DMSO due to their limited water solubility. […] The inhibitory efficiency of the studied compounds was expressed by IC50 values, i.e., by molar concentration of the compounds causing 50% decrease in the oxygen evolution rate relative to the untreated control.

The subject of data set [3] is Staphylococcus aureus ATCC 29213. Put plainly: In vitro antibacterial susceptibility testing, broth dilution micro-method. The class given is cell-based. The note with it: 24 h, 37 °C; for MIC: ATCC29213, MH broth. On the procedure:
(§1) The synthesized compounds were evaluated for in vitro antibacterial activity against representatives of multidrug-resistant bacteria, clinical isolates of methicillin-resistant Staphylococcus aureus (MRSA) 63718, SA 630 and SA 3202 that were obtained from the National Institute of Public Health, Prague, Czech Republic. Staphylococcus aureus ATCC 29213 was used as a reference and quality control strain. Ampicillin (Sigma-Aldrich) was used as the standard. Prior to testing, each strain was passaged onto nutrient agar (Oxoid, Hampshire, UK) with 5% of bovine blood, and bacterial inocula were prepared by suspending a small portion of bacterial colony in sterile phosphate buffered saline (pH 7.2–7.3). The cell density was adjusted to 0.5 McFarland units using a densitometer (Densi-La-Meter, LIAP, Riga, Latvia). The final inoculum was made by 1:20 dilution of the suspension with the Mueller-Hinton broth (MH broth). […] The broth dilution micro-method modified according to NCCLS guidelines in MH broth was used to determine the minimum inhibitory concentration (MIC). Drug-free controls, sterility controls and controls consisted of MH broth and DMSO alone were included. The determination of results was performed visually after 24 h of static incubation in the darkness at 37 °C in an aerobic atmosphere. The MICs were defined as the lowest concentration of the compound at which no visible bacterial growth was observed.
Background: In broth dilution the organism is exposed to a series of concentrations in liquid medium.

Data set [4] relates to methicillin-resistant Staphylococcus aureus (MRSA) 63718. Described as above. It counts as cell-based. The note with it: clinical isolate MRSA 63718, MH broth, 24 h, 37 °C; for MIC: Staphylococcus aureus. On the procedure:
as §1

In data set [5] the test system is methicillin-resistant S. aureus SA 3202. Described as above. The class given is cell-based, Staphylococcus aureus. Conditions: clinical isolate MRSA SA 3202, MH broth, 24 h, 37 °C; for MIC: Staphylococcus aureus. On the procedure: as §1
Data set [6] concerns methicillin-resistant S. aureus SA 630. The description is as above. The class given is cell-based, Staphylococcus aureus. Conditions: clinical isolate MRSA SA 630, MH broth, 24 h, 37 °C; for MIC: Staphylococcus aureus. On the procedure: as §1
Data set [7] relates to Mycobacterium marinum CAMP 5644. As to the kind of experiment: In vitro antimycobacterial evaluation, broth dilution micro-method. The class given is cell-based. The note with it: CAMP5644, 504 h, Middlebrook 7H9, 21 days, 28 °C.
The next data set deals with M. kansasii DSM 44162. Described as above. The class given is cell-based. The note with it: Mycobacterium kansasii, DSM44162, 168 h, Middlebrook 7H9, 7 days, 37 °C.
Data set [8] has as its system human monocytic leukemia THP-1 cells. The class given is cell-based. The note with it: 24 h. On the procedure: Human monocytic leukemia THP-1 cells were used for in vitro toxicity assay. Cells were obtained from the European Collection of Cell Cultures (ECACC, Salisbury, UK) and routinely cultured in RPMI medium supplemented with 10% fetal bovine serum, 2% L-glutamine, 1% penicillin and streptomycin at 37 °C with 5% CO2. Cytotoxicity was determined using a WST-1 assay kit (Roche Diagnostics, Mannheim, Germany) according to the manufacturer’s instructions. The tested compounds were dissolved in DMSO and added in five increasing concentrations (0.37, 1.1, 3.3, 10, and 30 μmol/L) to the cell suspension in the culture medium. Subsequently, the cells were incubated for 24 h at 37 °C with 5% CO2. WST-1 assays conducted in triplicates were performed as previously described. The median lethal dose values, LD50, were deduced through the production of a dose-response curve. All data were evaluated using GraphPad Prism 5.00 software (GraphPad Software, San Diego, CA, USA).

Data set [9] shares this test system. Conditions: assessed in this line formerly; cited from earlier work.
Setting [10] is: phosphate buffer pH 7.2, DCPIP acceptor.
[11] abbreviates: as quoted in the chlorophyll a fluorescence discussion.

pIC50: −log10 of the molar value. In brackets after ≈: the same amount, converted by molar mass. Read-outs that look alike come from different tables or passages of the source. Bounds are passed on as bounds.

As for `O=C(Nc1cccc([N+](=O)[O-])c1)c1cc2ccccc2cc1O` [compound 8b, 3-Hydroxy-N-(3-nitrophenyl)naphthalene-2-carboxamide], the log k in data set [1] is given as 0.8143. The same compound gave a negative-log IC50 (pIC50) in data set [2] (setting [10]) of 4.77. Besides, the minimal inhibitory concentration (MIC) is > 830 µM in data set [3]; > 830 µM in data set [4]; > 830 µM in [5]; > 830 µM in data set [6]; > 830 µM in data set [7]; 415 µM (≈ 128 µg/mL) with M. kansasii DSM 44162. This compound showed an LD50 in data set [8] of 2.5 ± 0.9 µmol/L.
Compound `O=C(Nc1ccccc1[N+](=O)[O-])c1cc2ccccc2cc1O` [compound 8a, 3-Hydroxy-N-(2-nitrophenyl)naphthalene-2-carboxamide] returned a log k in [1] of 0.8710. This compound also showed a pIC50 in data set [2] (setting [10]) of 3.97. Moreover, the MIC in [3] is > 830 µM; in data set [4], > 830 µM; in data set [5] it was 415 µM (≈ 128 µg/mL); in data set [6], 415 µM (≈ 128 µg/mL); in [7], 830 µM (≈ 256 µg/mL); against M. kansasii DSM 44162 it was 830 µM (≈ 256 µg/mL).
Compound `COc1ccccc1NC(=O)c1cc2ccccc2cc1O` [compound 2a, 3-Hydroxy-N-(2-methoxyphenyl)naphthalene-2-carboxamide] had a log k in [1] of 0.6916. For the same compound, the pIC50 in [2] (setting [10]) was 4.23. Further, the MIC turned out to be 55 µM (≈ 16.1 µg/mL) in data set [3]; 55 µM (≈ 16.1 µg/mL) in [4]; 55 µM (≈ 16.1 µg/mL) in data set [5]; 55 µM (≈ 16.1 µg/mL) in data set [6]; 873 µM (≈ 256 µg/mL) in data set [7]; 218 µM (≈ 63.9 µg/mL) in the data set on M. kansasii DSM 44162. Moreover, in data set [3] (MH broth), the “MIC SA” value was found to be 55 µM (≈ 16.1 µg/mL). Moreover, the “MIC MRSA 63718” value in data set [4] is 55 µM (≈ 16.1 µg/mL). In [5], the “MIC MRSA 3202” value was determined as 55 µM (≈ 16.1 µg/mL). Further, the “MIC MRSA 630” value in data set [6] worked out at 55 µM (≈ 16.1 µg/mL).
On to `CC[C@@]1(O)C(=O)OCc2c1cc1n(c2=O)Cc2cc3ccccc3nc2-1` [camptothecin], for which the LD50 in data set [9] is recorded as 0.20 ± 0.07 µmol/L.
Turning to `O=C(Nc1ccccc1Br)c1cc2ccccc2cc1O` [6a, N-(2-Bromophenyl)-3-hydroxynaphthalene-2-carboxamide], the log k in data set [1] was 0.9715. This compound also showed a pIC50 in data set [2] (setting [10]) of 4.36. Moreover, the MIC is > 748 µM in data set [3]; > 748 µM in data set [4]; > 748 µM in [5]; > 748 µM in data set [6]; > 748 µM in [7]; 748 µM (≈ 256 µg/mL) against M. kansasii DSM 44162.
With `COc1cccc(NC(=O)c2cc3ccccc3cc2O)c1` [compound 2b, 3-Hydroxy-N-(3-methoxyphenyl)naphthalene-2-carboxamide], the log k in [1] was 0.6971. Further, the pIC50 in data set [2] (setting [11]) and in data set [2] (setting [10]) was 4.27 in each case. Moreover, the MIC in data set [3] is > 873 µM; in data set [4] it was > 873 µM; in [5], > 873 µM; in data set [6], > 873 µM; in data set [7], > 873 µM; with M. kansasii DSM 44162, 54.6 µM (≈ 16 µg/mL).
With `O=C(Nc1ccccc1C(F)(F)F)c1cc2ccccc2cc1O` [compound 7a, 3-Hydroxy-N-(2-trifluoromethylphenyl)naphthalene-2-carboxamide], the log k in [1] is on record as 0.8762. Besides, the pIC50 in data set [2] (setting [11]) and in data set [2] (setting [10]) was 3.98 throughout. The MIC was > 773 µM in data set [3]; > 773 µM in [4]; 97 µM (≈ 32.1 µg/mL) in data set [5]; > 773 µM in data set [6]; 193 µM (≈ 63.9 µg/mL) in data set [7]; 193 µM (≈ 63.9 µg/mL) with M. kansasii DSM 44162. Also, the LD50 in [8] came to 28.6 ± 0.5 µmol/L.
The compound `O=C(Nc1ccc([N+](=O)[O-])cc1)c1cc2ccccc2cc1O` [compound 8c, 3-Hydroxy-N-(4-nitrophenyl)naphthalene-2-carboxamide] displayed a log k in data set [1] of 0.9175. The pIC50 in data set [2] (setting [10]) was 3.73. The MIC in data set [3] is > 830 µM; in [4], > 830 µM; in data set [5], > 830 µM; in [6], > 830 µM; in data set [7], > 830 µM; against M. kansasii DSM 44162, 13 µM (≈ 4.01 µg/mL).

Values taken from article PMC6270455, “Antibacterial and Herbicidal Activity of Ring-Substituted 3-Hydroxynaphthalene-2-carboxanilides” (Molecules, 2013).
